Reference: US20190284635A1, “METHOD FOR THE PROGNOSIS AND/OR TREATMENT OF ACUTE PROMYELOCYTIC LEUKEMIA” (EPI-C S.R.L., priority 2016, published 2019)

How the values were obtained:
NB4 cells [1] = assay: Cell death induction in NB4 cells; type: cell-based, human; conditions: for cytotoxicity at 3 µM: Homo sapiens, NB-4, 30 h; for % Cell death NB4 cells: 3 μM, 30 h
Procedure: (§1) For cell cycle analyses, the cells were plated (2×10^5 cells/mL) and after stimulation (performed as indicated in the text) were harvested, centrifuged at 1200 rpm for 5 minutes and resuspended in 500 μL of a hypotonic solution containing 1×PBS, Sodium Citrate 0.1%, 0.1% NP-40, RNAase A and […] Propidium Iodide (PI) (a dye that intercalates between the DNA bases, marking the DNA content in the cells and emitting a fluorescent signal that enables the analysis). After 30′ at room temperature (RT) in the dark, samples were acquired by FACS-Calibur (BD Bioscences, San Jose, Calif., USA) using CellQuest software (BD Biosciences). The percentage in different phases of the cell cycle was determined by ModFit LT V3 software (Verity). All experiments were performed in triplicate.
When tested in leukemia NB4 cells at 3 μM for 30 h, MC2884 induced 52.1% cell death. Some MC2884 analogues have been tested to obtain SAR data (Table 8).

SHSY5Y cells = assay: Cell death induction in SHSY5Y cells; type: cell-based; conditions: 48 h; for cytotoxicity at 3 µM: Homo sapiens, SH-SY5Y; for cell death induction in SHSY5Y cells, in words, relative to MC2884: 3 μM
Procedure: as §1
When tested in neuroblastoma SHSY5Y cells at 3 μM for 48 h, MC2884 and its analogues furnished similar trend of death induction as in NB4 cells (Table 7). In general, the SHSY5Y cell line is less sensitive to the tested molecules than NB4 cells.

[2] = system: acetyl-H3K9-14, H3K27me3/2, EZH2 in NB4 cells; assay: Western blot of histone marks and EZH2 in NB4 cells; type: cell-based, human
Procedure: The procedures were performed as described in (31,34). Primary antibodies used were: H3K27me3 (Abcam); H3K9-14ac (Millipore); H3K27ac, EZH2, PARP, TRAIL, RIP (Abcam); BID, BAX, BCL2 (Cell Signaling); BCL-XL (BD Biosciences); ERKs (Santa Cruz) and α-tubulin (Sigma) were used to normalize the total protein extracts, while H1 (Abcam) to normalize histone extracts.

NB4 cells [3] = assay: Combination of ABT-737 with MC2884, pre-G1 cells; type: cell-based, human; conditions: ABT-737 with addition of MC2884 at concentrations that alone induced little apoptosis
Procedure: For cell cycle analyses, the cells were plated (2×10^5 cells/mL) and after stimulation (performed as indicated in the text) were harvested, centrifuged at 1200 rpm for 5 minutes and resuspended in 500 μL of a hypotonic solution containing 1×PBS, Sodium Citrate 0.1%, 0.1% NP-40, RNAase A and 50 mg/mL Propidium Iodide (PI) (a dye that intercalates between the DNA bases, marking the DNA content in the cells and emitting a fluorescent signal that enables the analysis). After 30' at room temperature (RT) in the dark, samples were acquired by FACS-Calibur (BD Bioscences, San Jose, Calif., USA) using CellQuest software (BD Biosciences). The percentage in different phases of the cell cycle was determined by ModFit LT V3 software (Verity). All experiments were performed in triplicate.

[4] = system: APL-Rs (pt#7 and 8) blasts; assay: Cell death in ex vivo APL-R blasts; type: cell-based, human; conditions: pt#7 and 8, 24 h
Procedure: Blasts cells were purified by the Ficoll-Hypaque gradient separation method (GE Healthcare). RNA was obtained by using TRIzol (Life Technologies) according to the manufacturer's recommendations. Isolation of genomic DNA has complied the FlexiGene DNA protocol (Qiagen).
To further strengthen our findings in primary human cells, apoptosis was evaluated in 6 AML patient blasts (FIG. 10C).

pCAF = pCAF (Homo sapiens, UniProt Q92831); assay: HAT in vitro assay, pCAF; type: biochemical; conditions: substrate Histone H3; 3 μM Acetyl-CoA; 10-dose IC50 mode; read-out: IC50 pCAF acetyltransferase
Sequence of pCAF (Q92831 whole entry): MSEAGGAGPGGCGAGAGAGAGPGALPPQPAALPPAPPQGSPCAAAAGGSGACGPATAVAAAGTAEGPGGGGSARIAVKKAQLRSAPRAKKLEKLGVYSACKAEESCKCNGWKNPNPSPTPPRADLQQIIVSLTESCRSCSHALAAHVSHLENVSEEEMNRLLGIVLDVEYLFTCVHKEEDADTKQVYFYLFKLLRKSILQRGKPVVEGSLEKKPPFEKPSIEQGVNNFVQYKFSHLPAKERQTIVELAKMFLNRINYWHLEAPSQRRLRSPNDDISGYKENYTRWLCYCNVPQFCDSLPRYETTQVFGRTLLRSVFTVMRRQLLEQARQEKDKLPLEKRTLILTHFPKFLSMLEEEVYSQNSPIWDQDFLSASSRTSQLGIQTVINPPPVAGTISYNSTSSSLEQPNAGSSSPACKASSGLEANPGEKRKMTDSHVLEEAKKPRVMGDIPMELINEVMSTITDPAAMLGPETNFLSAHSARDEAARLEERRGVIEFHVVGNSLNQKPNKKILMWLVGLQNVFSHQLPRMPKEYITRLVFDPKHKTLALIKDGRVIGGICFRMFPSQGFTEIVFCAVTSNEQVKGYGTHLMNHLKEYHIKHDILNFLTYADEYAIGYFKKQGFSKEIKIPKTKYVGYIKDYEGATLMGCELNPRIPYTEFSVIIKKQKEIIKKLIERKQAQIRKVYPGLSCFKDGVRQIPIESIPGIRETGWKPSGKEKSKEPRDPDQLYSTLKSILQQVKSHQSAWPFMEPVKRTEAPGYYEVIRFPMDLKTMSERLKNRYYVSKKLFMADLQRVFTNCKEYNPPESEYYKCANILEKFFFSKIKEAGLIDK
Procedure: (§2) MC2884 activity was also tested in vitro and IC50 was calculated as indicated in the scheme. […] Reactions were carried out at 3 μM Acetyl-CoA. Empty cells indicate no inhibition or compound activity that could not be fit to an IC50 curve.

GCN5 = GCN5 (Homo sapiens, UniProt Q92830); assay: HAT in vitro assay, GCN5; type: biochemical; conditions: substrate Histone H3; 3 μM Acetyl-CoA; 10-dose IC50 mode; read-out: IC50 GCN5 acetyltransferase
Sequence of GCN5 (Q92830 whole entry): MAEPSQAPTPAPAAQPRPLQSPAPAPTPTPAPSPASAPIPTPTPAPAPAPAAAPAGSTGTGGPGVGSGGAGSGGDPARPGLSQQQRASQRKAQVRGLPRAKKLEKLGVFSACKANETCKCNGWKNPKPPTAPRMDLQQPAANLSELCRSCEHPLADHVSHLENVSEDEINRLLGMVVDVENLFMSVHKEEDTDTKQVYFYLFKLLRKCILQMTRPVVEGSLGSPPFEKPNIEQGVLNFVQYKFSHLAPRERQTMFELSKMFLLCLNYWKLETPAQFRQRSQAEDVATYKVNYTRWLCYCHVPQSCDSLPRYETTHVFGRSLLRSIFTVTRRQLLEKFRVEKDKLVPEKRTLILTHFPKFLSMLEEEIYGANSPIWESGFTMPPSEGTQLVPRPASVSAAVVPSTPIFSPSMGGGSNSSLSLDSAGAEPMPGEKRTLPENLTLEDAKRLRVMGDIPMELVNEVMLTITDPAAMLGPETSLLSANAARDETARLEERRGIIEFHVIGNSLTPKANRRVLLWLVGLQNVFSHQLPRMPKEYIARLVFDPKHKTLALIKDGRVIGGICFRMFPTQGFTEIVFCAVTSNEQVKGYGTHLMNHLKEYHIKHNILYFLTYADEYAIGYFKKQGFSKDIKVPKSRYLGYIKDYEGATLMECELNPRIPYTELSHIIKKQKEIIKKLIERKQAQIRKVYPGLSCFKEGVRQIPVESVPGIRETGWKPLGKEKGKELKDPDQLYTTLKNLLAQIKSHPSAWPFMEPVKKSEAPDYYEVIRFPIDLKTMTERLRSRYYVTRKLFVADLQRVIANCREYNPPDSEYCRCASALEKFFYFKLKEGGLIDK
Procedure: as §2

CYP3A4 = target: T1, CYP3A4 (Homo sapiens, UniProt P08684); assay: Cytochrome P450 inhibition, CYP3A4, human liver microsomes; type: in vitro ADME; conditions: at 25 μM, probe midazolam
T1 construct: from tissue; host or cells: human liver microsomes
T1 sequence (P08684 whole entry): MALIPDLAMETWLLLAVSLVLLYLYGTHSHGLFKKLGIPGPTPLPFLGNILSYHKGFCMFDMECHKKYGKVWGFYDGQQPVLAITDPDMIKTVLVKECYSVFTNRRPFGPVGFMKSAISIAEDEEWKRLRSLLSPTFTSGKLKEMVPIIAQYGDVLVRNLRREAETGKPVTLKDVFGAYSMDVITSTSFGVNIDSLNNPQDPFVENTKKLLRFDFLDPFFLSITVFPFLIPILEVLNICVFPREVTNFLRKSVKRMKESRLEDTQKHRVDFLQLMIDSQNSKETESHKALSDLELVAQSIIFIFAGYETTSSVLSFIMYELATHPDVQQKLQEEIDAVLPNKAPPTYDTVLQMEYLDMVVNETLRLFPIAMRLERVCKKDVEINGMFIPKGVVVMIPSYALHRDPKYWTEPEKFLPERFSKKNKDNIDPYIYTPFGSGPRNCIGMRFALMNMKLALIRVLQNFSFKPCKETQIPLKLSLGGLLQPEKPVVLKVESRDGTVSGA

[5] = system: immortalized non-cancer cell systems; assay: Cytotoxicity on immortalized non-cancer cells; conditions: at the dose effective on cancer cells
Procedure: Colorimetric exclusion: cells (2×10^5 cells/mL) were plated in multiwells and in triplicate.

[6] = Mouse terminal IV PK study; type: in vivo; conditions: 2 mg/kg, male CD1 mice, plasma
Procedure: (§3) Compound was administered both intravenously and intraperitoneally to mice. Blood samples were collected at 8 time points over 24 hr and plasma analysed by LC-MS/MS to determine the concentration of compound.
(§4) The plasma time concentration profile was calculated with the main PK parameters (Co, AUClast, t, VD, and CL).
For iv dosing. Compound was dissolved at 0.4 mg/mL. This provided a dose of 2 mg free base material/kg when administered iv in a 5 mL/kg dosing volume.
Compound MC2884 was given iv via the lateral tail vein at a dose of 2 mg/kg to a group of 24 normally fed male CD1 mice in a 5 mL/kg injection volume. Terminal blood samples (>230 μL) were taken under CO2 from groups of 3 mice at each of 8 time-points post dose (0.083, 0.25, 0.5, 1, 2, 4, 8 and 24 h) and placed into heparinized tubes. Samples were placed on ice for no longer than 30 min before centrifugation (10,000 rpm×3 min). Plasma samples (>100 μL) were collected into fresh tubes and frozen on dry ice. Number of plasma samples=24. Consistent IV profiles were obtained, with little variability across the time-points (the average profile is shown in the second spreadsheet). […] FIG. 17-18 display results for IV-IP administration of MC2884 in normal mice.

[7] = Stability of MC2884 in cell culture medium (DMEM, RP-HPLC); type: physicochemical; conditions: 50 μM in DMEM
Procedure: The compound was dissolved in DMEM at 50 μM and its concentration was measured by RP-HPLC using a ONYX 50×2 mm ID C18 column operating at 600 μL/min. The gradient applied was from 1% solvent B to 70% solvent B in 10 minutes. Solvent A was water with added 0.1% trifluoroacetic acid (TFA) and solvent B was acetonitrile with added 0.1% TFA. The eluate was monitored using a diode array detector with wavelengths set between 200-320 nm. The compound was eluted at 11.1 min. Peak integration was carried out on the chromatogram extracted at […], which is one of the compound absorbance maxima. A calibration curve was built by injecting solutions of the compound in DMSO at concentrations ranging between 1.5 μM and 200 μM. After incubation in DMEM compound concentration was determined at time points ranging between 0 and 72 hrs. As shown, half of compound was degraded after 10h. At 72 hrs it was fully degraded under these conditions.

[8] = Mouse terminal IP PK study; type: in vivo, male CD1 mice; conditions: plasma, 2 mg/kg
Procedure: as §3, §4
For ip dosing. After formulation assessment, MC2884 was dissolved at 0.2 mg/mL. This provided a dose of 2 mg free base material/kg when administered ip in a 10 mL/kg dosing volume.
Compound MC2884 was given ip at a dose of 2 mg/kg to a group of 24 normally fed male CD1 mice in a 10 mL/kg injection volume. Terminal blood samples (>230 μL) were taken under CO2 from groups of 3 mice at each of 8 time-points post dose (0.083, 0.25, 0.5, 1, 2, 4, 8 and 24 h) and placed into heparinized tubes. Samples were placed on ice for no longer than 30 min before centrifugation (10,000 rpm×3 min). Plasma samples (>100 μL) were collected into fresh tubes and frozen on dry ice. All samples were stored at −20° C. Number of plasma samples=24. FIG. 17-18 display results for IV-IP administration of MC2884 in normal mice

KAT5 = KAT5 (Homo sapiens, UniProt Q92993); assay: HAT in vitro assay, KAT5; type: biochemical; conditions: substrate Histone H2A; 3 μM Acetyl-CoA; 10-dose IC50 mode; read-out: IC50 KAT5 acetyltransferase
Sequence of KAT5 (Q92993 whole entry): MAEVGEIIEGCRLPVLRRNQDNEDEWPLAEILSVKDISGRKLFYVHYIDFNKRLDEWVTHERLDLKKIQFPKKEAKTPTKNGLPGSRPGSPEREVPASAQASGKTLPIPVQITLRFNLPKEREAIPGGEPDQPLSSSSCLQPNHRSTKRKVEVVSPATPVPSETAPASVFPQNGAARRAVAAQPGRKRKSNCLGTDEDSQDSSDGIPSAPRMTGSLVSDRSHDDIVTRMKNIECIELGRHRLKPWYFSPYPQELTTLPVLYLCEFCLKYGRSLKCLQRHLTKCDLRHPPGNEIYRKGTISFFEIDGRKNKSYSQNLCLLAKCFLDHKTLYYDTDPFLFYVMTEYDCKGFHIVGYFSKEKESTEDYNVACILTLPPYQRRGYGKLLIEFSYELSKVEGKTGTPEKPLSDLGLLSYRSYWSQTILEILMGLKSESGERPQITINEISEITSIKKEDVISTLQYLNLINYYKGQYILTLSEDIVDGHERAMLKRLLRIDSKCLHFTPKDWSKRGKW
Procedure: as §2

CBP = CBP (Homo sapiens, UniProt Q92793); assay: HAT in vitro assay, CBP; type: biochemical; conditions: substrate Histone H3; 3 μM Acetyl-CoA; 10-dose IC50 mode; read-out: IC50 CBP acetyltransferase
Sequence of CBP (Q92793 whole entry): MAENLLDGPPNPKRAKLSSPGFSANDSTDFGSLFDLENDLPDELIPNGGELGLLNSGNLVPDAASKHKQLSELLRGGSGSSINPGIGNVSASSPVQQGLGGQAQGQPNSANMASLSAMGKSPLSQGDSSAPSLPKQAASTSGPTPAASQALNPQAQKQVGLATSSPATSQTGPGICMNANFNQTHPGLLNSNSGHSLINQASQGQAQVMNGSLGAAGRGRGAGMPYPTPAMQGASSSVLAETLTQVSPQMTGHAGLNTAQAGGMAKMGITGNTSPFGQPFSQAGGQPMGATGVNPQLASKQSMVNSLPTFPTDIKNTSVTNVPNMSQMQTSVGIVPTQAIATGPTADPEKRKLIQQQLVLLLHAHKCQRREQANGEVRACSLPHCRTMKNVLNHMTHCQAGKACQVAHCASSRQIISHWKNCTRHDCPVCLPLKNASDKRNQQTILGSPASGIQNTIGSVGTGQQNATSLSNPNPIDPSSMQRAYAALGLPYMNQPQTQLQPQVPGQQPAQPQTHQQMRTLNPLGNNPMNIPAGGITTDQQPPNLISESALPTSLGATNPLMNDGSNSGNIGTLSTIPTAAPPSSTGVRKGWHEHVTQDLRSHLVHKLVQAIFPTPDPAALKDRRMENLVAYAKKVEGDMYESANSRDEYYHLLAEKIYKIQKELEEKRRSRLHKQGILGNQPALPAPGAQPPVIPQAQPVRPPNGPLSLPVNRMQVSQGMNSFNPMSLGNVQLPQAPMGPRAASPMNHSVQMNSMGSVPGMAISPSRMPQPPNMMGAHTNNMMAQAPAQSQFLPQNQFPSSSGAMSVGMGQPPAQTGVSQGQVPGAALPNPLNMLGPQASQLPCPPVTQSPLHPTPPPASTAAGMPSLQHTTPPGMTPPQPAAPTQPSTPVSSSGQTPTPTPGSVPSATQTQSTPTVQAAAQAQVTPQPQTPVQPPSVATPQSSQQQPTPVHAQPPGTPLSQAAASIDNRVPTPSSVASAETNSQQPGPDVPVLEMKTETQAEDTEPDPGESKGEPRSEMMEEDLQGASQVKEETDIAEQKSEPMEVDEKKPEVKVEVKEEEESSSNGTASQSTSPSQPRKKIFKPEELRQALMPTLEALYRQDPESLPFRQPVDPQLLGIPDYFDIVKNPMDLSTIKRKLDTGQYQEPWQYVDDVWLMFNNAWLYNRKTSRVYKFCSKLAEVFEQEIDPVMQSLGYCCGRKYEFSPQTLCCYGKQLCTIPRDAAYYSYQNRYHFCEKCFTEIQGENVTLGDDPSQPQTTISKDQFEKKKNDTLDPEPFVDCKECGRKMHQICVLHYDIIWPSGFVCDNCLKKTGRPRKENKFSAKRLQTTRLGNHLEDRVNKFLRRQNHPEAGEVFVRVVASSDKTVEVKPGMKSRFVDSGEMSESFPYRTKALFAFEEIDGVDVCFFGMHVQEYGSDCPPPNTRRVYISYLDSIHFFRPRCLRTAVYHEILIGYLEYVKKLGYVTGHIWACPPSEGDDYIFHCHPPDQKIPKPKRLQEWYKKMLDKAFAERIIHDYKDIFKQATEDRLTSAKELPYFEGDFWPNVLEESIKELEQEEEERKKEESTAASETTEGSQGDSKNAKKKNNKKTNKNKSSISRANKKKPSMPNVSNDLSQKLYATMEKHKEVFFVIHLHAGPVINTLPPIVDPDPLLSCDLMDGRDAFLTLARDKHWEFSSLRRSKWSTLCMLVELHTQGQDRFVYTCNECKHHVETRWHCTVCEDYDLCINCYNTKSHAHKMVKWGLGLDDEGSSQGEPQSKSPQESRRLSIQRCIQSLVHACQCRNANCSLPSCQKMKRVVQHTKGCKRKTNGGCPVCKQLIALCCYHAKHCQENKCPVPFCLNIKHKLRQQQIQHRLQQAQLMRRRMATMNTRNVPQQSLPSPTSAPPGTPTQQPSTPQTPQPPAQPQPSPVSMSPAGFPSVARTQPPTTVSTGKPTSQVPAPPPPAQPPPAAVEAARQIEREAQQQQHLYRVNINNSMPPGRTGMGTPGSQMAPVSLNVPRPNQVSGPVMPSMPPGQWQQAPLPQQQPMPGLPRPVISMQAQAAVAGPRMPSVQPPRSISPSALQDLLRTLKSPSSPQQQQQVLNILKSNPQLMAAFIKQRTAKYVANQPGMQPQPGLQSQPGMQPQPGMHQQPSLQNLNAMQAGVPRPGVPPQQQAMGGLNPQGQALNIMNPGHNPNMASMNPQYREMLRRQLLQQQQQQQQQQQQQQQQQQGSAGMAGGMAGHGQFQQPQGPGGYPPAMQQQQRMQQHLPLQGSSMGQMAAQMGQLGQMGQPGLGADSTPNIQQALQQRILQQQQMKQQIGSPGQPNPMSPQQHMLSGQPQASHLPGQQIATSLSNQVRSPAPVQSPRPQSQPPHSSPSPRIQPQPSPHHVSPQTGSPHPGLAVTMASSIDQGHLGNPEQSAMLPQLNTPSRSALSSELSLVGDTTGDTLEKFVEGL
Procedure: as §2

| SMILES | cytotoxicity at 3 µM (NB4 cells [1]) | cytotoxicity at 3 µM (SHSY5Y cells) | also measured |
| --- | --- | --- | --- |
| O=C(/C=C/c1ccc(Br)cc1)/C=C/c1ccc(Br)cc1 [MC2886, (1E,4E)-1,5-bis(4-bromophenyl)penta-1,4-dien-3-one] | 0.56% | 1.2% |  |
| CN1C/C(=C\c2cccc(Br)c2)C(=O)/C(=C/c2cccc(Br)c2)C1 [MC2914, 3,5-bis(3-bromobenzylidene)-1-methylpiperidin-4-one] | 36% | 9% | % Cell death NB4 cells (NB4 cells [1]): 36.0%; cell death induction in SHSY5Y cells, in words, relative to MC2884 (SHSY5Y cells): reduced the potency |
| O=C1/C(=C/c2cccc(Br)c2)CSC/C1=C\c1cccc(Br)c1 [MC2913, 3,5-bis(3-bromobenzylidene)dihydro-2H-thiopyran-4(3H)-one] | 52.7% | 23.9% |  |
| O=C1/C(=C/c2cccc(Br)c2)CN(CCc2ccccc2)C/C1=C\c1cccc(Br)c1 [MC3269, 3,5-bis(3-bromobenzylidene)-1-phenethylpiperidin-4-one] | 62.5% | 19.2% | cell death induction in SHSY5Y cells, in words, relative to MC2884 (SHSY5Y cells): same potency as MC2884 |
| O=C1/C(=C/c2cccc(Br)c2)CN(C(=O)CCc2ccccc2)C/C1=C\c1cccc(Br)c1 [MC3187, 3,5-bis(3-bromobenzylidene)-1-(3-phenylpropanoyl) piperidin-4-one] | 28.9% | 19.9% | cell death induction in SHSY5Y cells, in words, relative to MC2884 (SHSY5Y cells): slightly more potent than MC2884 |
| O=C1/C(=C/c2cccc(Br)c2)CN(C(=O)c2ccccc2)C/C1=C\c1cccc(Br)c1 [MC3146, 1-benzoyl-3,5-bis(3-bromobenzylidene)piperidin-4-one] | 13.2% | 5.6% |  |
| O=C1/C(=C/c2cccc(Br)c2)COC/C1=C\c1cccc(Br)c1 [MC2912, 3,5-bis(3-bromobenzylidene)dihydro-2H-pyran-4(3H)-one] | 4.1% | 1% |  |
| O=C1/C(=C/c2cc(Br)cc(Br)c2)CN(Cc2ccccc2)C/C1=C\c1cc(Br)cc(Br)c1 [MC2910, 1-benzyl-3,5-bis(3,5-dibromobenzylidene)piperidin-4-one] | 4.2% | 2.4% |  |
| O=C1/C(=C/c2ccc(Br)cc2)CN(Cc2ccccc2)C/C1=C\c1ccc(Br)cc1 [MC2909, 1-benzyl-3,5-bis(4-bromobenzylidene)piperidin-4-one] | 8.8% | 4.7% | modulation of histone acetylation and EZH2 deregulation [2]: unable to modulate; cell death induction in SHSY5Y cells, in words, relative to MC2884 (SHSY5Y cells): less potent or not active |
| O=C1/C(=C/c2cccc(Br)c2)CN(CCCc2ccccc2)C/C1=C\c1cccc(Br)c1 [MC3272, 3,5-bis(3-bromobenzyliden)-1-(3-phenylpropyl) piperidin-4-one] | 29.2% | 7% |  |
| O=C1/C(=C/c2ccccc2Br)CN(Cc2ccccc2)C/C1=C\c1ccccc1Br [MC2908, 1-benzyl-3,5-bis(2-bromobenzylidene)piperidin-4-one] | 30.3% | 9.2% |  |
| CN(C)CC[C@H](CSc1ccccc1)Nc1ccc(S(=O)(=O)NC(=O)c2ccc(N3CCN(Cc4ccccc4-c4ccc(Cl)cc4)CC3)cc2)cc1[N+](=O)[O-] [ABT-737] |  |  | cell death with ABT-737 plus MC2884 (NB4 cells [3]): up to 60% |
| CC1=C(/C=C/C(C)=C/C=C/C(C)=C/C(=O)O)C(C)(C)CCC1 [ATRA, All Trans Retinoic Acid] |  |  | apoptosis in ex vivo APL-R blasts [4]: did not undergo efficient apoptosis |
| CCCCCCCCCCCCCCCc1cccc(O)c1C(=O)O [Anacardic Acid] |  |  | IC50 (pCAF): 38.8 µM; IC50 (GCN5): 38.6 µM |
| O=C1/C(=C/c2cccc(Br)c2)CN(CC(=O)c2ccccc2)C/C1=C\c1cccc(Br)c1 [MC3207, 3,5-bis(3-bromobenzylidene)-1-(2-oxo-2-phenylethyl)piperidin-4-one] | 38% | 7% | % Cell death NB4 cells (NB4 cells [1]): 38.0% |
| O=C1/C(=C/c2cccc(Br)c2)CCC/C1=C\c1cccc(Br)c1 [MC2911, 2,6-bis((E)-3-bromobenzylidene)cyclohexan-1-one] | 0.76% | 0.8% |  |
| O=C1/C(=C/c2cccc(Br)c2)CN(Cc2ccccc2)C/C1=C\c1cccc(Br)c1 [MC2884, 1-benzyl-3,5-bis(3-bromobenzylidene)piperidin-4-one] | 52.1% |  | CYP3A4 % inhibition (CYP3A4): 45%; cytotoxicity on non-cancer cells [5]: low cytotoxicity; average half-life [6]: 4.58 h; AUC ([6]; mouse): 13300 ng·h/mL; time for total degradation in culture medium [7]: 72 h; bioavailability ([8]; male, CD1, mouse, dose route IP, time frame 0-inf): 140%; AUC ([8]; mouse, ip, male CD1 mice): 18400 ng·h/mL |
| O=C1/C(=C/c2ccc(O)cc2Br)CN(Cc2ccccc2)C/C1=C\c1ccc(O)cc1Br [MC3395, 1-benzyl-3,5-bis((E)-2-bromo-4-hydroxybenzylidene)piperidin-4-one] | 0.53% | 1% |  |
| CC1=NN(c2ccc(C(=O)O)cc2)C(=O)/C1=C\c1ccc(-c2cc(C)c(C)cc2[N+](=O)[O-])o1 [C646] |  |  | IC50 (KAT5): 20.4 µM; IC50 (CBP): 0.0787 µM |
